Some test systems named below: SK-OV-3 ovarian; KM12 colon; T-47D breast; HOP-92 NSCLC; NCI-H460 lung; 786-0 renal; HCT-116 colon; NCI-H522 lung; PC-3 prostate; RXF 393 renal; CAKI-1 renal; SW-620 colon; LOX IMVI melanoma; HL-60(TB) leukemia; OVCAR-4 ovarian; TK-10 renal; UACC-257 melanoma; OVCAR-5 ovarian; NCI/ADR-RES ovarian; K-562 leukemia.
Assay in all cases: NCI-60 cell line screen, 48 h

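These data come from cells grown in 96-well plates and exposed to compound for 48 hours at five concentrations. The concentration for full growth arrest is given as TGI.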 Bounds are passed on as bounds.

In the case of `CC(/C=C/C=C\C=C\C=C(/C)C(=O)NC(C)CO)=C\C(C)C(O)/C(C)=C/C(C)CCc1ccccc1` (stereo not given), the TGI worked out at 64 µM in the experiment on SK-OV-3 ovarian; 19.1 µM in the experiment with KM12 colon; 46.4 µM in the experiment on T-47D breast; 13.5 µM in the experiment with HOP-92 NSCLC; 26.5 µM in the experiment on NCI-H460 lung; 26.4 µM with 786-0 renal. Moreover, the TGI with HCT-116 colon is 19.4 µM; in the experiment with NCI-H522 lung, 17.6 µM; in the experiment with PC-3 prostate, 25.2 µM; with RXF 393 renal, 26.6 µM; with CAKI-1 renal it was 54.1 µM; in the experiment with SW-620 colon, 28.4 µM. In addition, the TGI is 16.5 µM in the experiment with LOX IMVI melanoma; > 100 µM with HL-60(TB) leukemia; 37.4 µM in the experiment with OVCAR-4 ovarian; 32.1 µM in the experiment with TK-10 renal; 12.3 µM in the experiment with UACC-257 melanoma; 31 µM with OVCAR-5 ovarian. Besides, the TGI was 93 µM in the experiment with NCI/ADR-RES ovarian and > 53.6 µM in the experiment with K-562 leukemia.

As to `CCC(C#N)NCc1ccc(CNC(C#N)CC)cc1` (stereo not given), the TGI in the experiment on SK-OV-3 ovarian, with KM12 colon, in the experiment on T-47D breast, in the experiment with HOP-92 NSCLC, in the experiment with NCI-H460 lung and with 786-0 renal was > 100 µM each time. Also, the TGI in the experiment on HCT-116 colon, in the experiment with NCI-H522 lung, with PC-3 prostate, in the experiment on RXF 393 renal, in the experiment with CAKI-1 renal and in the experiment with SW-620 colon was > 100 µM in each case. Also, the TGI in the experiment with LOX IMVI melanoma, in the experiment on HL-60(TB) leukemia, in the experiment with OVCAR-4 ovarian, in the experiment with TK-10 renal, with UACC-257 melanoma and in the experiment with OVCAR-5 ovarian was > 100 µM each time. Further, the TGI with NCI/ADR-RES ovarian and in the experiment with K-562 leukemia was > 100 µM throughout.

`O=C(O)c1[nH]c(=O)[nH]c(=O)c1CN1CCCCC1`: the TGI with SK-OV-3 ovarian, in the experiment on KM12 colon, in the experiment on T-47D breast, in the experiment on HOP-92 NSCLC, in the experiment on NCI-H460 lung and in the experiment with 786-0 renal was > 100 µM throughout. The TGI in the experiment with HCT-116 colon, in the experiment on NCI-H522 lung, with PC-3 prostate, in the experiment with RXF 393 renal, in the experiment on CAKI-1 renal and with SW-620 colon was > 100 µM throughout. Moreover, the TGI in the experiment with LOX IMVI melanoma, with HL-60(TB) leukemia, with OVCAR-4 ovarian, in the experiment on TK-10 renal, in the experiment with UACC-257 melanoma and in the experiment on OVCAR-5 ovarian was > 100 µM in each case. For the same compound, the TGI in the experiment on NCI/ADR-RES ovarian and with K-562 leukemia was > 100 µM in each case.

Turning to `O=c1[nH]c(=S)n(-c2cccc3ccccc23)c(O)c1/C=C1\C=Nc2ccccc21`, the TGI in the experiment with SK-OV-3 ovarian is 14.5 µM; in the experiment with KM12 colon it was 6.87 µM; in the experiment on T-47D breast, 19.3 µM; in the experiment with HOP-92 NSCLC it was 4.85 µM; with NCI-H460 lung, 5.38 µM; in the experiment with 786-0 renal it was 3.55 µM. Also, the TGI with HCT-116 colon came out at 4.55 µM; in the experiment on NCI-H522 lung, 10.2 µM; with PC-3 prostate, 6.74 µM; in the experiment with RXF 393 renal, 3.43 µM; in the experiment on CAKI-1 renal it was 8.65 µM; with SW-620 colon it was 6.73 µM. Also, the TGI in the experiment with LOX IMVI melanoma stood at 3.81 µM; with HL-60(TB) leukemia, 5.27 µM; in the experiment on OVCAR-4 ovarian it was 7.42 µM; in the experiment with TK-10 renal, 6.06 µM; in the experiment with UACC-257 melanoma, 5.51 µM; in the experiment with OVCAR-5 ovarian, 5.47 µM. The TGI in the experiment on NCI/ADR-RES ovarian was determined as 10.5 µM; in the experiment with K-562 leukemia, 7.11 µM.

For `O=C1CCN=C(NC(=O)C(F)(F)F)N1CCc1c[nH]c2ccccc12`, the TGI in the experiment on SK-OV-3 ovarian, in the experiment with KM12 colon, with T-47D breast, in the experiment with HOP-92 NSCLC, in the experiment with NCI-H460 lung and with 786-0 renal was > 100 µM throughout. Also, the TGI in the experiment on HCT-116 colon, with NCI-H522 lung, in the experiment with PC-3 prostate, with RXF 393 renal, with CAKI-1 renal and in the experiment with SW-620 colon was > 100 µM each time. The TGI with LOX IMVI melanoma, in the experiment with HL-60(TB) leukemia, in the experiment with OVCAR-4 ovarian, in the experiment with TK-10 renal, with UACC-257 melanoma and in the experiment on OVCAR-5 ovarian was > 100 µM each time. Further, the TGI in the experiment with NCI/ADR-RES ovarian and with K-562 leukemia was > 100 µM throughout.

As to `CCCCCCCCCCCCCCCCOP(=O)(O)OP(=O)(O)OCC1OC(n2cnc3c(N)ncnc32)C(O)C1O` (stereo not given), the TGI in the experiment on SK-OV-3 ovarian was > 100 µM; in the experiment with KM12 colon, > 100 µM; in the experiment on T-47D breast, > 100 µM; with HOP-92 NSCLC it was 36.7 µM; in the experiment on NCI-H460 lung it was > 100 µM; with 786-0 renal, > 100 µM. Further, the TGI is > 100 µM in the experiment with HCT-116 colon; 92.8 µM in the experiment on NCI-H522 lung; > 100 µM with PC-3 prostate; > 100 µM with RXF 393 renal; > 100 µM in the experiment on CAKI-1 renal; > 100 µM in the experiment with SW-620 colon. Also, the TGI with LOX IMVI melanoma was > 100 µM; in the experiment with HL-60(TB) leukemia, > 100 µM; in the experiment on OVCAR-4 ovarian, > 100 µM; in the experiment on TK-10 renal, > 100 µM; with UACC-257 melanoma it was > 100 µM; with OVCAR-5 ovarian, 47.4 µM. In addition, the TGI in the experiment on NCI/ADR-RES ovarian and in the experiment with K-562 leukemia was > 100 µM each time.

Regarding `Nc1nc(Cl)cc(NCC2(CO)CC(CCCc3ccccc3)C2)n1` (stereo not given), the TGI was > 100 µM with SK-OV-3 ovarian; > 100 µM in the experiment with KM12 colon; > 100 µM with T-47D breast; > 95.9 µM in the experiment with HOP-92 NSCLC; > 100 µM with NCI-H460 lung; > 100 µM with 786-0 renal. Besides, the TGI is > 100 µM in the experiment with HCT-116 colon; > 100 µM in the experiment with NCI-H522 lung; > 100 µM in the experiment with PC-3 prostate; > 78.2 µM with RXF 393 renal; > 100 µM in the experiment on CAKI-1 renal; > 100 µM in the experiment with SW-620 colon. Also, the TGI was > 100 µM in the experiment on LOX IMVI melanoma; > 100 µM with HL-60(TB) leukemia; > 100 µM with OVCAR-4 ovarian; > 100 µM with TK-10 renal; > 93.7 µM with UACC-257 melanoma; > 100 µM in the experiment with OVCAR-5 ovarian. The TGI in the experiment on NCI/ADR-RES ovarian and with K-562 leukemia was > 100 µM throughout.
